One block for each compound: values may come before it.
Columns and labels:
[1] = target: T1, mouse GPR84 (RAW264.7 cells) (Mus musculus, UniProt Q8CIM5); experiment: […]GTPγS binding, membranes; type: biochemical; conditions: agonist, LPS-treated cells, […] °C, pH […] GDP
[2] = target: T2, mouse GPR84-Gαi2 (Mus musculus, UniProt Q8CIM5); experiment: […]GTPγS binding, membranes; type: biochemical; conditions: […] °C, pH […] GDP
T2 construct: N-terminal FLAG-tagged mouse GPR84 fused to Gαi2 (transducer / reporter; silent C636T in Gαi2); doxycycline-inducible Flp-In T-REx 293 cells; membranes

[3] = target: T3, human GPR35a (Homo sapiens, UniProt Q9HC97); experiment: β-arrestin-2 recruitment BRET, HEK293 cells; type: cell-based; conditions: agonist mode
T3 construct: gene GPR35; C-terminal eYFP tag, HEK293 cells co-transfected with luciferase-tagged β-arrestin-2

[4] = target: T4, mouse GPR35 (Mus musculus, UniProt Q9ES90); experiment: β-arrestin-2 recruitment BRET, HEK293 cells; type: cell-based; conditions: agonist mode
T4 construct: C-terminal eYFP tag, HEK293 cells co-transfected with luciferase-tagged β-arrestin-2

[5] = target: T5, human GPR84-Gαi2 (Homo sapiens, UniProt Q9NQS5); experiment: […]GTPγS binding, membranes; type: biochemical; conditions: partial agonist, allosteric; […] °C, pH […] GDP
T5 construct: doxycycline-inducible Flp-In T-REx 293 cells; membranes

[6] = target: T1, mouse GPR84 (RAW264.7 cells); experiment: inhibition of agonist-stimulated […]GTPγS binding, membranes; type: biochemical; conditions: antagonist; LPS-treated cells; versus EC80 2-HTP
[7] = target: T5, human GPR84-Gαi2; experiment: as above; type: biochemical; conditions: antagonist, non-competitive; versus EC80 2-HTP
[8] = target: T6, GPR84 (THP-1 cells) (Homo sapiens, UniProt Q9NQS5); experiment: as above; type: biochemical; conditions: antagonist, non-competitive; LPS-treated cells; versus EC80 2-HTP
T6 construct: endogenous receptor in membranes of LPS-treated THP-1 monocytes

[9] = target: T2, mouse GPR84-Gαi2; experiment: as above; type: biochemical; conditions: antagonist; versus EC80 2-HTP
[10] = target: T6, GPR84 (THP-1 cells); experiment: saturation radioligand binding, membranes; conditions: labelled compound; antagonist; LPS-treated cells; […] °C, pH […]

T1 sequence (Q8CIM5 whole entry): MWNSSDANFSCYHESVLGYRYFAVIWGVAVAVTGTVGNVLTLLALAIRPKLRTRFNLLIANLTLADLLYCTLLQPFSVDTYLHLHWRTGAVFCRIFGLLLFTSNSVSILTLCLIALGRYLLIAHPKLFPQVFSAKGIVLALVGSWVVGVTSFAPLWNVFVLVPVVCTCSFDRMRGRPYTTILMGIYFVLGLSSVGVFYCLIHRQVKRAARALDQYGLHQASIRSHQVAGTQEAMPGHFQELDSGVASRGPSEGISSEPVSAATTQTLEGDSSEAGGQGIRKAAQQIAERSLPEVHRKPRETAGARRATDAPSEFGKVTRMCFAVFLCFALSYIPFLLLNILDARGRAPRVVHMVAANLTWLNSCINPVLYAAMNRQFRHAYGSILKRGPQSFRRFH
T6 sequence (Q9NQS5 whole entry): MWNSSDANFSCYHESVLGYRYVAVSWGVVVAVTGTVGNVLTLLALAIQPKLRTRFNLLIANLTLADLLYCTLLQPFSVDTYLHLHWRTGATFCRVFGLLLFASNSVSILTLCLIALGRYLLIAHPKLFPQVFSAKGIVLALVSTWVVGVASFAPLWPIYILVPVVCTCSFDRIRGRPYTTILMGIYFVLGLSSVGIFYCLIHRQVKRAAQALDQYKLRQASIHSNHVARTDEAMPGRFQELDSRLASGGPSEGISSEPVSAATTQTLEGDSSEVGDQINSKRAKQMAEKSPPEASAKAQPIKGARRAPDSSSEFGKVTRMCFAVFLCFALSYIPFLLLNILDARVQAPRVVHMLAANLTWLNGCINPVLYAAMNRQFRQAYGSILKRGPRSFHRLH
T5 sequence (Q9NQS5 whole entry): as above
T4 sequence (Q9ES90 whole entry): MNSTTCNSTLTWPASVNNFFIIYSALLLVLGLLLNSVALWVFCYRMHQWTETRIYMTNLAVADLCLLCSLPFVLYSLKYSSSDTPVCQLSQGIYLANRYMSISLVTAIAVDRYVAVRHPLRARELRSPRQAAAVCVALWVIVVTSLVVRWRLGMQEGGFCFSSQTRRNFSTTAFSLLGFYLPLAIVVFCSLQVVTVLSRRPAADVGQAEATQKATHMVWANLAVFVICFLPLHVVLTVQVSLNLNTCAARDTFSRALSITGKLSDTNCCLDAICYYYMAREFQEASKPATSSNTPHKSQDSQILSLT
T3 sequence (Q9HC97 whole entry): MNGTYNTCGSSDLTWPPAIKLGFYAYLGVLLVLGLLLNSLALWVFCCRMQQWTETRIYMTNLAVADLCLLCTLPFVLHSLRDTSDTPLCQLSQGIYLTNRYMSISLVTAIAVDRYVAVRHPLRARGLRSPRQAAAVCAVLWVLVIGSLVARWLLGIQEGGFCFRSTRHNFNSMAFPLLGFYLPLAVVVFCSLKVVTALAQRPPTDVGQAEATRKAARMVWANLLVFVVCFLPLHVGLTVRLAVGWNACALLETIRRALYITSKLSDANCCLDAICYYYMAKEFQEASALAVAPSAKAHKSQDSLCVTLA

pEC50 ([1]; allosteric): 6.75 ± 0.10
pEC50 ([2]; agonist, allosteric): 6.53 ± 0.07
Compound: Fc1cc(F)c2[nH]cc(Cc3c[nH]c4c(F)cc(F)cc34)c2c1 [PSB-16671, di(5,7-difluoro-1H-indole-3-yl)methane]
β-arrestin-2 recruitment BRET, HEK293 cells [4]: neither PSB-16671 nor 2-HTP was able to activate mouse GPR35

pIC50 [6]: 6.50 ± 0.06
pIC50 [7]: 8.14 ± 0.06
pIC50 [8]: 7.86 ± 0.02
pIC50 [9]: 6.90 ± 0.05
Compound: O=c1nc(OCC2COCCO2)cc2n1CCc1cc(C#CCNc3ccccc3)ccc1-2 (centres unmarked) [compound 107, 2-([1,4]dioxan-2-ylmethoxy)-9-(3-phenylamino-prop-1-ynyl)-6,7-dihydro-pyrimido[6,1-a]isoquinolin-4-one]

Kd [10]: 0.18 ± 0.02 nM
Compound: [^3H]9543

More lines, now with the values behind:

Compound: CCCCCCSc1nc(O)cc(O)n1 [2-HTP, 2-(hexylthiol)pyrimidine-4,6 diol]
pEC50 [1]: 7.58 ± 0.08
pEC50 ([2]; agonist): 7.52 ± 0.11
β-arrestin-2 recruitment BRET, HEK293 cells [3]: 2-HTP was also unable to activate human GPR35
β-arrestin-2 recruitment BRET, HEK293 cells [4]: neither PSB-16671 nor 2-HTP was able to activate mouse GPR35

Compound: c1ccc2c(Cc3c[nH]c4ccccc34)c[nH]c2c1 [DIM]
pEC50 ([2]; partial agonist, allosteric): 5.37 ± 0.08
EC50 [5]: Equivalent studies using DIM confirmed the higher potency of PSB-16671
